Test results as given in the NIST ThermoML archive (doi:10.1021/acs.jced.5b00813).

Columns and labels:
[1] = excess molar enthalpy (molar enthalpy of mixing); xn = mol fraction of the nth substance listed; conditions: 298.15 K, 100 kPa, Liquid, Calvet calorimetry
[2] = xn = mol fraction of the nth substance listed; conditions: 298.15 K, 100 kPa, Liquid, Vibrating tube method
[3] = 298.15 K; 100 kPa; Liquid; Vibrating tube method
[4] = refractive index (Na D-line) (dimensionless); conditions: 298.15 K; 101.33 kPa; Liquid; Standard Abbe refractometry

COC(C)=O [methyl ethanoate] + CCCCCCCC
Conditions	excess molar enthalpy [kcal/mol]	mass density [kg/m3]
[1], x2 = 0.0466	0.0992	–
[1], x2 = 0.1009	0.194	–
[1], x2 = 0.1504	0.271	–
[1], x2 = 0.2057	0.338	–
[1], x2 = 0.258	0.391	–
[1], x2 = 0.3043	0.427	–
[1], x2 = 0.3516	0.455	–
[1], x2 = 0.3642	0.464	–
[1], x2 = 0.3999	0.479	–
[1], x2 = 0.446	0.487	–
[1], x2 = 0.5006	0.487	–
[1], x2 = 0.5742	0.467	–
[1], x2 = 0.6631	0.417	–
[1], x2 = 0.7615	0.331	–
[1], x2 = 0.8485	0.226	–
[1], x2 = 0.9324	0.107	–
[2], x2 = 0	–	927.16
[2], x2 = 0.0493	–	901.46
[2], x2 = 0.1011	–	878.04
[2], x2 = 0.1517	–	857.91
[2], x2 = 0.2033	–	839.55
[2], x2 = 0.253	–	823.66
[2], x2 = 0.3008	–	809.86
[2], x2 = 0.3471	–	797.79
[2], x2 = 0.3946	–	786.15
[2], x2 = 0.4523	–	773.45
[2], x2 = 0.4951	–	764.76
[2], x2 = 0.5307	–	758.11
[2], x2 = 0.5777	–	749.93
[2], x2 = 0.5898	–	747.92
[2], x2 = 0.6146	–	743.98
[2], x2 = 0.6388	–	740.27
[2], x2 = 0.6699	–	735.52
[2], x2 = 0.7238	–	728.1
[2], x2 = 0.7841	–	720.49
[2], x2 = 0.8333	–	714.64
[2], x2 = 0.8887	–	708.75
[2], x2 = 0.9311	–	704.69
[2], x2 = 0.9585	–	702.21

CCCCCCCC [octane]
Conditions	mass density [kg/m3]	refractive index
[3]	698.58	–
[4]	–	1.3952

CCCCCCCC [octane] + COC(C)=O
Conditions	mass density [kg/m3]
[2], x1 = 1	698.58

CC(C)CC(C)(C)C [2,2,4-trimethylpentane]
Conditions	mass density [kg/m3]	refractive index
[3]	687.75	–
[4]	–	1.389

CCCC(=O)OC [methyl butanoate] + COC(C)=O
Conditions	excess molar enthalpy, [1] [kcal/mol]	mass density, [2] [kg/m3]
x1 = 0.0106	–	926.21
x1 = 0.027	0.00526	–
x1 = 0.0564	–	923.86
x1 = 0.0962	0.0127	–
x1 = 0.1023	–	921.52
x1 = 0.1361	–	919.91
x1 = 0.1645	0.0198	–
x1 = 0.203	–	916.91
x1 = 0.226	0.0244	–
x1 = 0.2536	–	914.74
x1 = 0.2888	0.0287	–
x1 = 0.3054	–	912.64
x1 = 0.3478	0.0323	–
x1 = 0.4002	0.0342	–
x1 = 0.4122	–	908.65
x1 = 0.4437	0.0356	–
x1 = 0.4511	–	907.3
x1 = 0.4822	0.0361	–
x1 = 0.5276	0.0356	–
x1 = 0.5456	–	904.19
x1 = 0.5725	0.0349	–
x1 = 0.5906	–	902.8
x1 = 0.6148	–	902.08
x1 = 0.6268	0.033	–
x1 = 0.6958	0.0292	899.76
x1 = 0.7394	–	898.57
x1 = 0.7669	0.0239	–
x1 = 0.7873	–	897.29
x1 = 0.8368	–	896.07
x1 = 0.8497	0.0165	–
x1 = 0.8884	–	894.85
x1 = 0.9313	0.0086	–
x1 = 0.9538	–	893.32
x1 = 0.974	–	892.87
x1 = 1	–	892.34
